In one data set the target is T1, Human FXIa (Homo sapiens, UniProt P03951).
T1 construct: purchased HTI, Essex Junction, USA
Briefly: FXIa enzymatic chromogenic assay. Format: biochemical. On the procedure: (§1) Enzymatic assay. […] Selected compounds were also screened against other serine proteases to evaluate their selectivity profiles.
(§2) Once the compounds were synthesized and characterized, enzymatic assays were performed to evaluate the inhibitory activity of the resulting compounds against FXIa and other serine proteases. […] IC50 values for the compounds were determined using equation: Q= V/(1+([I]/IC50)^n) Q denotes the assay readout, V denotes the uninhibited velocity of the enzyme, [I] denotes the inhibitor concentration, n denotes the slope and IC50 is the inhibitor concentration at V/2.
(§3) [S] denotes the substrate concentration.

The target in the next data set is T2, FXIa CD (Homo sapiens, UniProt P03951, C500S/K455A/S452A/T493A).
T2 construct: purification of the catalytic domain (residues 370–607) was carried out as described by Jin et al; made in house
T2 sequence (P03951 388-625 S452A/K455A/T493A/C500S): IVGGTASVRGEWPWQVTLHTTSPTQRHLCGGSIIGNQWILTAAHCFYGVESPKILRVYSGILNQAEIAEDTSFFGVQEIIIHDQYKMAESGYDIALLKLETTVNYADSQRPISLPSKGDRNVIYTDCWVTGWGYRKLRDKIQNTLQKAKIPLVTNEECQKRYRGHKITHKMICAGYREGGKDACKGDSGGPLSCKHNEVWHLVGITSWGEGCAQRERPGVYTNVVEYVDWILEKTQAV
In words: FXIa surface plasmon resonance (Biacore) inhibition in solution assay. Format: binding. From the text: SPR. […] The SPR data were then used to rank and select compounds for X-ray crystallography experiments. The SPR method was based on an inhibition in solution assay in which compound 4, immobilized on the biosensor surface, served as a probe for the FXIa catalytic site. […] Fig. 4 illustrates the design of compound 4 based on the crystal structure of FXIa in complex with compound 1. Since any ligand that binds to the S1 pocket competes with compound 4 for binding to FXIa CD, it is possible to derive the K D for that ligand [60]. The initial binding rate of the protein to compound 4, K on, was used to determine the percentage of free protein in solution which changed by varying the concentration of the competing ligand. The free protein concentration was plotted against the logarithm of the ligand concentration and a sigmoidal dose–response curve-fit model was applied to determine the K D-value.
The tethered free amine ligand 4 was covalently linked to the dextran layer on the CM5 sensor chip (GE Healthcare/Biacore) using the Amine Coupling Kit (Healthcare/Biacore) and performed according to the manufacturer’s recommendations. Carboxyl groups on the dextran layer were activated by injecting a 1:1 mixture of 0.5 M N-ethyl-N’ (3-dimethylaminopropyl)-carbodiimide and 0.5 M N-hydroxysuccinimide at 10 μL/min for 7 min. The activated carboxyl groups on the control channels were blocked by injecting a 1 M ethanolamine solution for 7 min at 10 μL/min. […] The remaining activated groups were blocked with 1 M ethanolamine. Compounds were tested in a concentration response curve. The compounds were serially diluted 1:3 in DMSO to form a 10-point concentration response curve with 5 mM for the highest concentration. The FXIa CD was added to the plate at a final concentration of 50 nM and the mixture was incubated for 15 min at RT. The plate was then sealed and placed in the Biacore 3000 instrument. Samples were injected at 20 μL/min for 2 min. […] The value used to calculate percent inhibition of binding was the slope of the response measured 8 s after the start of the injection. […]
On the technique in general: Surface plasmon resonance follows binding to a sensor surface in real time, without labels.

Another data set addresses T3, Human PKK (Homo sapiens, UniProt P03952).
T3 construct: trypsin, plasma kallikrein (PKK), FIXa; purchased Calbiochem, Darmstadt, Germany
In words: PKK (plasma kallikrein) chromogenic assay. Format: biochemical. The note with it: for Ki: converted from IC50. On the procedure: as §1, §2, §3
PKK. Human PKK was from Calbiochem, Darmstadt, Germany.

A short description of data set [1]: Precipitation in FXIa potency measurement. The data set is classed as physicochemical.
The test system of another data set is rat hepatocytes. In words: Rat hepatocyte metabolic stability assay. Format: in vitro ADME. On the procedure: Rat hepatocyte metabolic stability was determined in accordance with the method described by Jacobson et al.. Cryo preserved hepatocytes at a concentration of 10^6 viable cells/mL were used. After thawing, hepatocytes were incubated for 10 min to warm to 37°C and test compounds, dissolved in acetonitrile, were added to give a final concentration of 1 μM. At 0.5, 5, 15, 30, 45, 60, 80, 100 and 120 min, the incubation system was mixed and 20 μL aliquots were transferred at each time point to wells in a separate plate filled with 80 μL acetonitrile to stop the reaction. The quenching plate was then vortexed followed by centrifugation, and supernatants were analyzed by LC/MS/MS. Peak areas were determined from extracted ion chromatograms, and the in vitro intrinsic clearance (in vitro CLint, in μL/min/10^6 cells) of parent compound was calculated from the slope in the regression analysis of the natural logarithm of parent concentration vs. time curve.

A further data set relates to Caco2 cells. Briefly: Caco2 permeability. Format: in vitro ADME. The note with it: measured at pH 6.5. The method, then: A monolayer of Caco2 cells, cultured on semi-permeable polycarbonate surfaces, was used to study the permeability in the apical to basolateral direction. The process was atomized by a robotic Tecan EVO platform (Männerdorf, Switzerland) and 24-transwell plates from Costar (Cambridge, MA, USA). HBSS buffer pH 7.4 was dispensed to the basal side of the monolayer. […] Samples for quantitative analysis by LC/MS/MS were withdrawn before the addition of the test substrate and at 45 and 120 min post addition of the test substrate. During incubation the transwell plates were placed in a shaking incubator at 37°C between sampling. The peak areas were exported to Excel where Papp-values and recoveries were calculated. Twenty-two reference compounds with known human oral bioavailability were used to establish a correlation curve with Papp versus the fraction of the oral dose absorbed (fa).

The next data set can be described thus: Caco2 efflux. Format: in vitro ADME. The note with it: human, Caco-2; Caco2, Papp B to A / Papp A to B, pH 7.4 at side A. An excerpt:
Efflux was studied in the same Caco2 cells with the modification that HBSS buffer pH 7.4 was used on both sides of the monolayer. The permeability was studied in the apical to basolateral direction (Papp AB) as well as in the basolateral to apical direction and (Papp BA). Efflux ratios were derived from the following equation: Papp BA/Papp AB.

The nature of data set [2]: Chromatographic determination of lipophilicity. Conditions: reversed-phase UPLC, Waters BEH C18 stationary phase, pH 7.4; measured by liquid chromatography, pH7.4. The data set is classed as physicochemical. From the text: The chromatographic data was obtained utilizing a Waters Aquity UPLC chromatographic system running a gradient from 5–95% acetonitrile at pH7.4. The stationary phase was a Waters BEH C18 2.1x50 mm. Standardized retention data were obtained by normalization against a set of compounds with precisely determined (octanol/water) logD-values. Lipophilicity values for samples were derived from a corresponding calibration curve.

The nature of another data set: In vivo rat PK. The note with it: female, Sprague Dawley, plasma. On the procedure: Two days prior to dosing, female Sprague Dawley rats were prepared by cannulation of the left carotid artery for blood sampling and by cannulation of the right jugular vein for intravenous administration. The catheters were filled with heparin (100 IU/mL), exteriorized at the nape of the neck and sealed. The surgery was performed under isoflurane (Forene®, Abbott) anesthesia. After surgery the rats were housed individually and had free access to food and water. About 16 h prior to dosing the animals were deprived of food, and fasted until 4 h after dosing. The rats had free access to drinking water during the experiment. On the experiment day, the test item formulation was administered orally by gavage or intravenously in the jugular vein. At pre-defined time points, blood samples of about 0.150 mL were withdrawn from the carotid artery up to 24h after dosing. A total of 10 samples were withdrawn. The blood samples were collected in heparinized plastic tubes and centrifuged, within 30 min, for five min at 10 000 g and +4°C. The plasma was transferred to a 96 well plate and stored at -20°C until analysis by LC/MS/MS. The studies were approved by the Göteborg Animal Research Ethical Board.

Read-outs that look alike come from different tables or passages of the source.

Here are results for 7 molecules from article PMC4309560, “Creating Novel Activated Factor XI Inhibitors through Fragment Based Lead Generation and Structure Aided Drug Design” (PLoS ONE, 2015).

T1 sequence (P03951 388-625): as the sequence (P03951 388-625 S452A/K455A/T493A/C500S) above, with A65S, A68K, A106T, S113C counted along it
T1 sequence (P03951 19-387): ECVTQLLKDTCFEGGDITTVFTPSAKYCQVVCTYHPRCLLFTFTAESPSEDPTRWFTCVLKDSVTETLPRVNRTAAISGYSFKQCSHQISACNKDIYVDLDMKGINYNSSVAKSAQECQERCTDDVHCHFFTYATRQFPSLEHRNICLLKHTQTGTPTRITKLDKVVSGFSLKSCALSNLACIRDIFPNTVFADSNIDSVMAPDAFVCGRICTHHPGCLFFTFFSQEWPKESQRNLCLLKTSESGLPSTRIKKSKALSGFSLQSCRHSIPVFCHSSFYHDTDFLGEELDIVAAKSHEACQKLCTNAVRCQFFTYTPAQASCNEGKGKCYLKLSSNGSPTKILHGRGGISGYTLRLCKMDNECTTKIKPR
T3 sequence (P03952 391-638 limits assumed): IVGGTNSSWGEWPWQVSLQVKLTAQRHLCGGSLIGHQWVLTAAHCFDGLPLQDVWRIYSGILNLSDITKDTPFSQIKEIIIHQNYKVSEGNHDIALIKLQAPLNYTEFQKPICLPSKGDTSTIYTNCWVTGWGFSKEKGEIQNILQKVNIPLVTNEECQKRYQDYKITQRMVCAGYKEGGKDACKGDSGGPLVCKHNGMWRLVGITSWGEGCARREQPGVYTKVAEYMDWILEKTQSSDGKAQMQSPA
T3 sequence (P03952 20-390 partner limits assumed): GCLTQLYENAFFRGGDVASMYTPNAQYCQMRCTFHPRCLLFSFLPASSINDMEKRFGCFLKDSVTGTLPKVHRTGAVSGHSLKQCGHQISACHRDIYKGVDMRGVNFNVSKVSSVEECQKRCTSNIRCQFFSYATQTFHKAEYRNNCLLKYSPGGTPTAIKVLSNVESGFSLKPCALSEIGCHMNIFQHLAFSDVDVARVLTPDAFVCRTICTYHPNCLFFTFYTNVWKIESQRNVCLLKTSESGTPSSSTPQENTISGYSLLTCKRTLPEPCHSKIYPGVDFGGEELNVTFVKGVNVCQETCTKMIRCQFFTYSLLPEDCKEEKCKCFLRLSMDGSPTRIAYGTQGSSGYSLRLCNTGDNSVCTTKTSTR

At Human FXIa, `N=C(N)c1ccc2cc(C(=O)Nc3cccc(OCCOCCN)c3)cc(Nc3ncccn3)c2c1` [Compound 4, N-(3-(2-(2-aminoethoxy)ethoxy)phenyl)-6-carbamimidoyl-4-(pyrimidin-2-ylamino)-2-naphthamide, reference compound] showed an IC50 of 0.24 µM and an inhibition constant Ki of 0.12 µM. Binding on FXIa CD was put at a Kd of 0.39 µM.
Take `Nc1ccc2c(CNC(=O)[C@H](Cc3ccccc3)NC(=O)c3ccc4[nH]c(=O)cc(O)c4c3)cccc2n1` [Compound 8, (S)-N-(1-{(2-Aminoquinolin-5-yl)methylamino}-1-oxo-3-phenylpropan-2-yl)-4-hydroxy-2-oxo-1,2-dihydroquinoline-6-carboxamide]: on Human FXIa, 0.12 µM corresponded to half-maximal inhibition (IC50) and the Ki was found to be 0.06 µM. Also, at Human PKK, it took 7.2 µM to reach half-maximal inhibition (IC50) and affinity was put at a Ki of 1.5 µM. Also, the “selectivity vs. PKK” value at Human PKK (FXIa over PKK, for 13 based on Ki values) is reported as “about 25 fold”. This molecule had a pKa in the data set “Experimental pKa” of 7.1.
As for `Cc1cc(=O)[nH]c2ccc(Cl)cc12` [Compound 12], the inhibition at 111 µM on Human FXIa (read-out: FXIa % inh. at 111 μM) was 43%. Besides, the “Precipitates at higher concentration than” value in [1] was greater than 111 µM.
`CNC(=O)[C@H](Cc1ccccc1)NC(=O)c1ccc2[nH]c(=O)cc(O)c2c1` [Compound 15, (S)-4-Hydroxy-N-(1-(methylamino)-1-oxo-3-phenylpropan-2-yl)-2-oxo-1,2-dihydroquinoline-6-carboxamide]: the “ligand efficiency (LE)” value on Human FXIa (FXIa) worked out at 0.15. For the same molecule, the “-ΔG fragment (printed with reversed sign in the ΔG link equation)” value on Human FXIa (FXIa, subtracted term, so ΔG itself is negative) worked out at 3.9 kcal/mol. The Kd on FXIa CD (read-out: FXIa KD) is 1400 µM.
`CN(Cc1cc(=O)[nH]c2ccc(Cl)cc12)C(=O)[C@H](Cc1ccccc1)NC(=O)c1ccc2[nH]c(=O)cc(O)c2c1` [Compound 25, (S)-N-(1-[{(6-Chloro-2-oxo-1,2-dihydroquinolin-4-yl)methyl}(methyl)amino]-1-oxo-3-phenylpropan-2-yl)-4-hydroxy-2-oxo-1,2-dihydroquinoline-6-carboxamide]: in the data set with rat hepatocytes, the “Rat CLint” value is 10 μL/min/ 1·10^6 cells. Also, the IC50 on Human FXIa is less than 0.005 µM. For the same molecule, at Human FXIa (read-out: FXIa % inh. at 5 nM), the inhibition at 0.005 µM stood at 85%. In addition, in the data set with Caco2 cells, the “Caco2 A to B permeability” value is given as 0.28 1·10^-6 cm/s. Besides, the efflux ratio in the data set “Caco2 efflux” is 5.2. The molecule further gave a chromatographic logD in data set [2] of 1.3.
Turning to `CN(Cc1cc(=O)[nH]c2ccc(Cl)cc12)C(=O)[C@H](Cc1ccccc1)N(C)C(=O)c1ccc2[nH]c(=O)cc(O)c2c1` [Compound 26, (S)-N-(1-[{(6-Chloro-2-oxo-1,2-dihydroquinolin-4-yl)methyl}(methyl)amino]-1-oxo-3-phenylpropan-2-yl)-4-hydroxy-N-methyl-2-oxo-1,2-dihydroquinoline-6-carboxamide], in the data set with rat hepatocytes, the “Rat CLint” value is 23 μL/min/ 1·10^6 cells. At Human FXIa, this molecule displayed a half-maximal inhibitory concentration (IC50) of 1.7 µM and an inhibition constant Ki of 0.85 µM. Moreover, the “Caco2 A to B permeability” value in the data set with Caco2 cells was 0.16 1·10^-6 cm/s. Further, the efflux ratio in the data set “Caco2 efflux” is greater than 3.8. In addition, the chromatographic logD in [2] amounted to 1.4.
`Cc1c(-c2ccccc2)n[nH]c1C(=O)N(C)Cc1cc(=O)[nH]c2ccc(Cl)cc12` [Compound 28, N-{(6-Chloro-2-oxo-1,2-dihydroquinolin-4-yl)methyl}-N,4-dimethyl-3-phenyl-1H-pyrazole-5-carboxamide]: the “Rat CLint” value in the data set with rat hepatocytes turned out to be 21 μL/min/ 1·10^6 cells. On Human FXIa, this molecule returned a half-inhibitory concentration (IC50) of 0.82 µM and an inhibitory constant (Ki) of 0.41 µM. At Human PKK, this molecule registered an IC50 of 8.4 µM and a Ki of 1.7 µM. For the same molecule, in the data set on Caco2 cells, the “Caco2 A to B permeability” value is 19 1·10^-6 cm/s. The clearance in “In vivo rat PK” (intravenous, rat in vivo, read-out: Rat CL (in vivo clearance)) stood at 18 mL/min/kg. This molecule also displayed a bioavailability in the data set “In vivo rat PK” (rat, oral) of 27%. Besides, in the data set “Caco2 efflux”, the efflux ratio came out at 1.6. Further, in data set [2], the chromatographic logD was found to be 2.7.

What is called IC50 is the concentration that gives 50% inhibition. A high value points to lower potency. By Ki is commonly meant a dissociation constant, usually derived from enzyme kinetics or from competition with a known ligand. Read a high Ki as a looser hold on the target. In general, Kd refers to the equilibrium constant for the complex coming apart. The term pKa denotes the pH at which an ionisable group is half protonated. The term efflux ratio denotes a quotient of directional permeabilities that is used to spot active efflux. The term chromatographic logD denotes lipophilicity estimated from chromatographic retention. The clearance is a measure of how efficiently the substance is removed, as volume per time. As a reminder, the bioavailability is dose-corrected exposure relative to a reference, in per cent. Low values mean little systemic uptake, high ones much systemic uptake.
